Data on 21 compounds can be found in patent US12083124B2 (Incyte Corporation, priority 2019, dated 2024).

Like-named read-outs stand apart in the source and are kept apart here. A value given as a limit tells only on which side of the number the result lay.

The target in assay [1] is wild-type un-phosphorylated FGFR4 (Homo sapiens, UniProt P22455). The assay is described as follows: FGFR Enzymatic Assay (FRET peptide phosphorylation), FGFR4.
Assay [2] has as its target wild-type un-phosphorylated FGFR1 (Homo sapiens, UniProt P11362). The assay is described as follows: FGFR Enzymatic Assay (FRET peptide phosphorylation), FGFR1. The following applies: pre-incubated for 4 hours.
Description: (§1) The inhibitor potency of the exemplified compounds was determined in an enzyme discontinuous assay that measures peptide phosphorylation using FRET measurements to detect product formation. Inhibitors were serially diluted in DMSO and a volume of 0.2 μL was transferred to the wells of a 384-well plate. […] Appropriate controls (enzyme blank and enzyme with no inhibitor) were included on the plate. […] The 10 μL/well reaction concentration of the peptide substrate was 500 nM whereas the ATP concentration was maintained near or below the ATP Km. The ATP Km values were pre-determined in a separate series of experiments. The reaction plate was incubated at 25° C. for 1 hr and the reactions were ended with the addition of 5 μL/well of quench solution (50 mM Tris, 150 mM NaCl, 0.5 mg/mL BSA, pH 7.8; 45 mM EDTA, 600 nM staurosporin, with Perkin Elmer Lance Reagents at 3.75 nM Eu-antibody PY20 and 180 nM APC-Streptavidin). The plate was allowed to equilibrate for ˜10 minutes at ambient temperature before scanning on a PheraStar plate reader (BMG Labtech) instrument.
(§2) Either GraphPad prism or XLfit was used to analyze the data. The IC50 values were derived by fitting the data to a four parameter logistic equation producing a sigmoidal dose-response curve with a variable Hill coefficient. Prism equation: Y=Bottom+(Top-Bottom)/(1+10^((Log IC50-X)*Hill slope)); XLfit equation: Y=(A+((B−A)/(1+((X/C)^D)))) where X is the logarithm of inhibitor concentration and Y is the response.
(§3) GraphPad prism3 was used to analyze the data. The IC50 values were derived by fitting the data to the equation for a sigmoidal dose-response with a variable slope. Y=Bottom+(Top-Bottom)/(1+10^((Log IC50-X)*Hill Slope)) where X is the logarithm of concentration and Y is the response.
The data in Table 1 was measured in wild-type un-phosphorylated FGFR1, FGFR2, FGFR3, and FGFR4 proteins.
The target of assay [3] is wild-type un-phosphorylated FGFR3 (Homo sapiens, UniProt P22607). The experiment in a line: FGFR Enzymatic Assay (FRET peptide phosphorylation), FGFR3.
Description: as §1, §2, §3
Assay [4] concerns the target wild-type un-phosphorylated FGFR2 (Homo sapiens, UniProt P21802). The experiment in a line: FGFR Enzymatic Assay (FRET peptide phosphorylation), FGFR2.
The mark [5] stands for this setting: read-out: FGFR4, wild-type un-phosphorylated FGFR4, pre-incubated for 4 hours.
Setting [6] is: read-out: FGFR1, wild-type un-phosphorylated FGFR1.
Where [7] appears, read: FGFR1, wild-type un-phosphorylated FGFR1.
The mark [8] stands for this setting: read-out: FGFR2, wild-type un-phosphorylated FGFR2, pre-incubated for 4 hours.

wild-type un-phosphorylated FGFR3, sequence (P22607 23-806): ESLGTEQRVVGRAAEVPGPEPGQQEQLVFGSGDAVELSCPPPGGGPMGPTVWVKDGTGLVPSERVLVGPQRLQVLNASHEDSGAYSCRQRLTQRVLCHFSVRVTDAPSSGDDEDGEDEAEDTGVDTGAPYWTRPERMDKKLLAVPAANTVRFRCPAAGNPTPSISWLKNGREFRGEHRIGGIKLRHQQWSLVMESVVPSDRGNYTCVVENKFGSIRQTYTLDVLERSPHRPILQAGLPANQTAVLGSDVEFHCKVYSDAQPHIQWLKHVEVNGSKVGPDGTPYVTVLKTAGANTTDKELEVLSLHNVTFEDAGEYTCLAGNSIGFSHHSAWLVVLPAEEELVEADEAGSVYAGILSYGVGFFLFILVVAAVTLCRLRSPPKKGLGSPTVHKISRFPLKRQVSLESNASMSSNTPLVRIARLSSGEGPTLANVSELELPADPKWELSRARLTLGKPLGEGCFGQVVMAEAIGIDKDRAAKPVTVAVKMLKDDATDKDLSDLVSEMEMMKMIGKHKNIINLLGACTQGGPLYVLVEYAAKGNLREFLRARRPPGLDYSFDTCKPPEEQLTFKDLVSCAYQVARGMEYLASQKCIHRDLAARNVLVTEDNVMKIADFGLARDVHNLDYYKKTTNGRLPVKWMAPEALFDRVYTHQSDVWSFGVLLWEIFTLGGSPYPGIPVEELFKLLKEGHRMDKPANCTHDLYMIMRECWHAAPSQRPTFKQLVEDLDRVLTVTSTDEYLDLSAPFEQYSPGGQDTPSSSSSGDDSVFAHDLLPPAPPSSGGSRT
wild-type un-phosphorylated FGFR4, sequence (P22455 22-802): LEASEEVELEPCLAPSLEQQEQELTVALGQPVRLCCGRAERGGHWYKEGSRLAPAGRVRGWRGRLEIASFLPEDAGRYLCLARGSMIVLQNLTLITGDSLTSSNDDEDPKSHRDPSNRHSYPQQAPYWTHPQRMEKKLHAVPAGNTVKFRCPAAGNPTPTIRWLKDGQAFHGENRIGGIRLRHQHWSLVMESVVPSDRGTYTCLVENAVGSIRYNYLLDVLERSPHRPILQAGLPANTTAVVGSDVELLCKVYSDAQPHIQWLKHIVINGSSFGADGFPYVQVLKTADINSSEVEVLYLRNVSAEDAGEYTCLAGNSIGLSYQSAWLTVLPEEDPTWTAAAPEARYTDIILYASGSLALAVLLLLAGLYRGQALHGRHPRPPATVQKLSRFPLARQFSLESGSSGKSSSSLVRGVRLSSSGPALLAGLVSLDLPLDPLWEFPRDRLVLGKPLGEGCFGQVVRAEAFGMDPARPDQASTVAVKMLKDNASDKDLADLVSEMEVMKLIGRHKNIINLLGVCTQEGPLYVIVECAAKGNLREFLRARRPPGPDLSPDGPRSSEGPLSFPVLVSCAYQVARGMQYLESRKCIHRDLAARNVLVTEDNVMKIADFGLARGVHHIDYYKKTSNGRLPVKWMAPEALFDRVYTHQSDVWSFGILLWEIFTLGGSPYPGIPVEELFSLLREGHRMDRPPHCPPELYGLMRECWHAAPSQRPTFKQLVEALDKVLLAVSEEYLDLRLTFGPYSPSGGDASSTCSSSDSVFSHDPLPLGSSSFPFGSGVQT
wild-type un-phosphorylated FGFR2, sequence (P21802 22-821): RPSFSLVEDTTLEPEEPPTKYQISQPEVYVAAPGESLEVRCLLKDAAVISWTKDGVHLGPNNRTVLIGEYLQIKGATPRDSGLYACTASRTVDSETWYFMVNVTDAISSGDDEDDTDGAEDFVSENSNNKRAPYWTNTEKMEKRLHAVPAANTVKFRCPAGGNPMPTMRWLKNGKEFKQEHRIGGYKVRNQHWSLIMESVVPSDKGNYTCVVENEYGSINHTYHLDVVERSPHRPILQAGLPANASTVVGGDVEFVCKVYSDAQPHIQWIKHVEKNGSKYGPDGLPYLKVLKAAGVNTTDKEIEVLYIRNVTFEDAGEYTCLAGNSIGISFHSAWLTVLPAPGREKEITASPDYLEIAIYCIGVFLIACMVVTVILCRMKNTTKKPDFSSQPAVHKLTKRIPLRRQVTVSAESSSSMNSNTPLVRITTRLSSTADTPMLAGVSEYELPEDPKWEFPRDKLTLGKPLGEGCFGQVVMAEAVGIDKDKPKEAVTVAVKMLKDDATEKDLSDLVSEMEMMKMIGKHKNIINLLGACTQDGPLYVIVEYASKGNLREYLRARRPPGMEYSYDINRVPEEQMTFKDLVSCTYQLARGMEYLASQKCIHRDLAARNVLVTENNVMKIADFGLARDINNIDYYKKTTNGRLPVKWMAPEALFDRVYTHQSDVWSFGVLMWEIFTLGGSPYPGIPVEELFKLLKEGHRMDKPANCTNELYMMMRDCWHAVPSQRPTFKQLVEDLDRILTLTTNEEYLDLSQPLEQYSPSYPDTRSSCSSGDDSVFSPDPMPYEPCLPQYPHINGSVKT
wild-type un-phosphorylated FGFR1, sequence (P11362 22-822): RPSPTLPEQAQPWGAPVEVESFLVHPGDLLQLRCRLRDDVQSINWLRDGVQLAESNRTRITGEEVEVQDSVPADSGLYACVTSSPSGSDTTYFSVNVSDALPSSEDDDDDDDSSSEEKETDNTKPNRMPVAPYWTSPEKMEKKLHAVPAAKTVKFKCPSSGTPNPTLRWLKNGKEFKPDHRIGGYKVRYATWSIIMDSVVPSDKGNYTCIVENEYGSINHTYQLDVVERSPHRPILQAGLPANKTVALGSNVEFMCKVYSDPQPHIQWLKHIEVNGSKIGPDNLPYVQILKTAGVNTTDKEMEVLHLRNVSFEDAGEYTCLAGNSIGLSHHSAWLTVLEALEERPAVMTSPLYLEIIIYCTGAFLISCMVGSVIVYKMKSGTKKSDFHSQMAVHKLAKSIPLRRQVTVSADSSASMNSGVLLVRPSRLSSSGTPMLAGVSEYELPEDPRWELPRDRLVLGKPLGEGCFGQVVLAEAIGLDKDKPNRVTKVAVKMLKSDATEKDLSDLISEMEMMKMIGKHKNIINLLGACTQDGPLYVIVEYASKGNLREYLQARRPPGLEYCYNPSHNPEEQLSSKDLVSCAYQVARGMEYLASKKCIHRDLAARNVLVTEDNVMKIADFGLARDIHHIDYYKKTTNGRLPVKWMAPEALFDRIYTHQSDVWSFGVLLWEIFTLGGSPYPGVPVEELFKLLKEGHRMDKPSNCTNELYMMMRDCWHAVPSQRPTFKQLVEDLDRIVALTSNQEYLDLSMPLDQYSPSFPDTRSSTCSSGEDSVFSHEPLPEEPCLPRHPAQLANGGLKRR

With `COc1cc2[nH]nc(-c3cnn([C@H]4CCN(C(=O)[C@@H]5CCN5CCF)C4)c3)c2nc1-c1cccc2c1CCC2` [Example 143, ((S)-3-(4-(5-(2,3-dihydro-1H-inden-4-yl)-6-methoxy-1H-pyrazolo[4,3-b]pyridin-3-yl)-1H-pyrazol-1-yl)pyrrolidin-1-yl)((S)-1-(2-fluoroethyl)azetidin-2-yl)methanone], the IC50 was 0.006 to 0.04 µM in assay [1] (setting [5]), 0.006 to 0.04 µM in assay [2] (setting [6]), less than 0.006 µM in assay [3] and less than 0.006 µM in assay [4].
As to `COc1cc2[nH]nc(-c3cnn(C4CN(C)C4)c3)c2nc1-c1cccc2c1CCC2` [Example 17, 5-(2,3-Dihydro-1H-inden-4-yl)-6-methoxy-3-(1-(1-methylazetidin-3-yl)-1H-pyrazol-4-yl)-1H-pyrazolo[4,3-b]pyridine], the IC50 in assay [1] is greater than 0.1 µM; in assay [2] (setting [7]), 0.04 to 0.1 µM; in assay [3], less than 0.006 µM; in assay [4], less than 0.006 µM.
As for `COc1cc2[nH]nc(-c3cnn(C4CC4)c3)c2nc1-c1cccc2c1CCC2` [Example 29, 3-(1-Cyclopropyl-1H-pyrazol-4-yl)-5-(2,3-dihydro-1H-inden-4-yl)-6-methoxy-1H-pyrazolo[4,3-b]pyridine], the IC50 in assay [1] is 0.04 to 0.1 µM; in assay [2] (setting [7]), 0.04 to 0.1 µM; in assay [3], less than 0.006 µM; in assay [4], less than 0.006 µM.
For the compound `COc1cc2[nH]nc(-c3cnn(C4CN(S(=O)(=O)CCN(C)C)C4)c3)c2nc1-c1cccc2c1CCC2` [Example 151, 2-((3-(4-(5-(2,3-Dihydro-1H-inden-4-yl)-6-methoxy-1H-pyrazolo[4,3-b]pyridin-3-yl)-1H-pyrazol-1-yl)azetidin-1-yl)sulfonyl)-N,N-dimethylethan-1-amine], the IC50 is 0.04 to 0.1 µM in assay [1], 0.006 to 0.04 µM in assay [2] (setting [6]), less than 0.006 µM in assay [3] and less than 0.006 µM in assay [4].
For `COc1cc2[nH]nc(-c3cnn(C4CN(C(=O)[C@H]5C[C@@H](OC)C5)C4)c3)c2nc1-c1cccc2c1CCC2` [Example 153, (3-(4-(5-(2,3-Dihydro-1H-inden-4-yl)-6-methoxy-1H-pyrazolo[4,3-b]pyridin-3-yl)-1H-pyrazol-1-yl)azetidin-1-yl)((1s,3s)-3-methoxycyclobutyl)methanone], the IC50 was 0.04 to 0.1 µM in assay [1], 0.006 to 0.04 µM in assay [2] (setting [6]), less than 0.006 µM in assay [3] and less than 0.006 µM in assay [4].
Take `COc1cc2[nH]nc(-c3ccc(C4CC(N(C)C(=O)[C@H](C)O)C4)nc3)c2nc1-c1cccc2c1CCC2` (stereo partly drawn) [Example 190, (S)-N-(3-(5-(5-(2,3-Dihydro-1H-inden-4-yl)-6-methoxy-1H-pyrazolo[4,3-b]pyridin-3-yl)pyridin-2-yl)cyclobutyl)-2-hydroxy-N-methylpropanamide]: the IC50 in assay [1] is 0.04 to 0.1 µM; in assay [2] (setting [6]) it was 0.006 to 0.04 µM; in assay [3], less than 0.006 µM; in assay [4], less than 0.006 µM.
For `COc1cc2[nH]nc(-c3cnn(C4CC(C#N)C4)c3)c2nc1-c1cccc2c1CCC2C#N` (stereo not drawn) [Example 111, 4-(3-(1-(3-Cyanocyclobutyl)-1H-pyrazol-4-yl)-6-methoxy-1H-pyrazolo[4,3-b]pyridin-5-yl)-2,3-dihydro-1H-indene-1-carbonitrile], the IC50 in assay [1] was 0.04 to 0.1 µM; in assay [2] (setting [7]), less than 0.006 µM; in assay [3], less than 0.006 µM; in assay [4], less than 0.006 µM.
As to `COc1cc2[nH]nc(-c3cnn(C4CN(C(=O)[C@H]5C[C@@](C)(O)C5)C4)c3)c2nc1-c1cccc2c1CCC2` [Example 136, (3-(4-(5-(2,3-Dihydro-1H-inden-4-yl)-6-methoxy-1H-pyrazolo[4,3-b]pyridin-3-yl)-1H-pyrazol-1-yl)azetidin-1-yl)((1s,3s)-3-hydroxy-3-methylcyclobutyl)methanone], the IC50 in assay [1] (setting [5]) was 0.006 to 0.04 µM; in assay [2] (setting [6]) it was 0.006 to 0.04 µM; in assay [3], less than 0.006 µM; in assay [4], less than 0.006 µM.
For `COc1cc2[nH]nc(-c3ccc(CN4CCC(O)CC4)nc3)c2nc1-c1cccc2c1CCC2` [Example 160, 1-((5-(5-(2,3-Dihydro-1H-inden-4-yl)-6-methoxy-1H-pyrazolo[4,3-b]pyridin-3-yl)pyridin-2-yl)methyl)piperidin-4-ol], the IC50 was 0.04 to 0.1 µM in assay [1], 0.04 to 0.1 µM in assay [2] (setting [7]), less than 0.006 µM in assay [3] and less than 0.006 µM in assay [4].
As for `COc1cc2[nH]nc(-c3ccc(CN4CC5CC4CO5)nc3)c2nc1-c1cccc2c1CCC2` (stereo not drawn) [Example 161, 5-((5-(5-(2,3-Dihydro-1H-inden-4-yl)-6-methoxy-1H-pyrazolo[4,3-b]pyridin-3-yl)pyridin-2-yl)methyl)-2-oxa-5-azabicyclo[2.2.1]heptane], the IC50 was 0.04 to 0.1 µM in assay [1], 0.04 to 0.1 µM in assay [2] (setting [7]), less than 0.006 µM in assay [3] and less than 0.006 µM in assay [4].
For `COc1cc2[nH]nc(-c3cnn(CCO)c3)c2nc1-c1cccc2c1CCC2` [Example 31, 2-(4-(5-(2,3-Dihydro-1H-inden-4-yl)-6-methoxy-1H-pyrazolo[4,3-b]pyridin-3-yl)-1H-pyrazol-1-yl)ethan-1-ol], the IC50 in assay [1] is 0.04 to 0.1 µM; in assay [2] (setting [7]) it was 0.04 to 0.1 µM; in assay [3], less than 0.006 µM; in assay [4] it was less than 0.006 µM.
On to `COc1cc2[nH]nc(-c3ccc(N4CCN5C[C@H](O)C[C@H]5C4)nc3)c2nc1-c1cccc(C)c1C` [Example 87, (7R,8aS)-2-(5-(5-(2,3-Dimethylphenyl)-6-methoxy-1H-pyrazolo[4,3-b]pyridin-3-yl)pyridin-2-yl)octahydropyrrolo[1,2-a]pyrazin-7-ol], for which the IC50 in assay [1] is 0.04 to 0.1 µM; in assay [2] (setting [7]), 0.04 to 0.1 µM; in assay [3], less than 0.006 µM; in assay [4], less than 0.006 µM.
Turning to `COc1cc2[nH]nc(-c3cnn([C@H]4CC[C@H](O)CC4)c3)c2nc1-c1cccc2c1CCC2` [Example 33, (trans)-4-(4-(5-(2,3-Dihydro-1H-inden-4-yl)-6-methoxy-1H-pyrazolo[4,3-b]pyridin-3-yl)-1H-pyrazol-1-yl)cyclohexan-1-ol], the IC50 in assay [1] was greater than 0.1 µM; in assay [2] (setting [7]) it was 0.04 to 0.1 µM; in assay [3], less than 0.006 µM; in assay [4], less than 0.006 µM.
Take `COc1cc2[nH]nc(-c3ccc(N4CCN(C)CC4)nc3)c2nc1-c1cccc(C)c1C` [Example 41, 5-(2,3-Dimethylphenyl)-6-methoxy-3-(6-(4-methylpiperazin-1-yl)pyridin-3-yl)-1H-pyrazolo[4,3-b]pyridine]: the IC50 is 0.04 to 0.1 µM in assay [1], 0.04 to 0.1 µM in assay [2] (setting [7]), less than 0.006 µM in assay [3] and less than 0.006 µM in assay [4].
Turning to `COc1cc2[nH]nc(-c3cnn(C4CN(C(=O)[C@@H](C)O)C4)c3)c2nc1-c1cccc2c1CCC2` [Example 123, (R)-1-(3-(4-(5-(2,3-Dihydro-1H-inden-4-yl)-6-methoxy-1H-pyrazolo[4,3-b]pyridin-3-yl)-1H-pyrazol-1-yl)azetidin-1-yl)-2-hydroxypropan-1-one], the IC50 in assay [1] (setting [5]) is 0.006 to 0.04 µM; in assay [2] (setting [6]), 0.006 to 0.04 µM; in assay [3] it was less than 0.006 µM; in assay [4] it was less than 0.006 µM.
On to `Cn1cc(-c2n[nH]c3cc(CO)c(-c4cccc5c4CCC5)nc23)cn1` [Example 36, (5-(2,3-Dihydro-1H-inden-4-yl)-3-(1-methyl-1H-pyrazol-4-yl)-1H-pyrazolo[4,3-b]pyridin-6-yl)methanol], for which the IC50 in assay [1] is greater than 0.1 µM; in assay [2] (setting [7]) it was 0.04 to 0.1 µM; in assay [3] it was less than 0.006 µM; in assay [4] (setting [8]), 0.006 to 0.04 µM.
Turning to `COc1cc2[nH]nc(-c3ccc(C4CCC(NC(=O)CO)C4)nc3)c2nc1-c1cccc2c1CCC2` (stereo not drawn) [Example 157, N-(3-(5-(5-(2,3-Dihydro-1H-inden-4-yl)-6-methoxy-1H-pyrazolo[4,3-b]pyridin-3-yl)pyridin-2-yl)cyclopentyl)-2-hydroxyacetamide], the IC50 is 0.04 to 0.1 µM in assay [1], 0.04 to 0.1 µM in assay [2] (setting [7]), less than 0.006 µM in assay [3] and less than 0.006 µM in assay [4].
In the case of `Cc1cccc(-c2nc3c(-c4cnn(C)c4)n[nH]c3cc2CO)c1C` [Example 38, (5-(2,3-Dimethylphenyl)-3-(1-methyl-1H-pyrazol-4-yl)-1H-pyrazolo[4,3-b]pyridin-6-yl)methanol], the IC50 in assay [1] was greater than 0.1 µM; in assay [2] (setting [7]), greater than 0.1 µM; in assay [3], less than 0.006 µM; in assay [4] (setting [8]), 0.006 to 0.04 µM.
For `COC(=O)N1CCC(n2cc(-c3n[nH]c4cc(OC)c(-c5cccc6c5CCC6)nc34)cn2)CC1` [Example 20, Methyl 4-(4-(5-(2,3-dihydro-1H-inden-4-yl)-6-methoxy-1H-pyrazolo[4,3-b]pyridin-3-yl)-1H-pyrazol-1-yl)piperidine-1-carboxylate], the IC50 is greater than 0.1 µM in assay [1], 0.04 to 0.1 µM in assay [2] (setting [7]), less than 0.006 µM in assay [3] and less than 0.006 µM in assay [4].
Regarding `COc1cc2[nH]nc(-c3cnn(CC#N)c3)c2nc1-c1cccc2c1CCC2C#N` (single isomer, unassigned) [Example 185, 4-(3-(1-(Cyanomethyl)-1H-pyrazol-4-yl)-6-methoxy-1H-pyrazolo[4,3-b]pyridin-5-yl)-2,3-dihydro-1H-indene-1-carbonitrile], the IC50 in assay [1] (setting [5]) is 0.006 to 0.04 µM; in assay [2] (setting [7]), 0.04 to 0.1 µM; in assay [3], less than 0.006 µM; in assay [4], less than 0.006 µM.
For the compound `COc1cc2[nH]nc(-c3ccc(CN4CCn5ncnc5C4)nc3)c2nc1-c1cccc2c1CCC2` [Example 163, 7-((5-(5-(2,3-Dihydro-1H-inden-4-yl)-6-methoxy-1H-pyrazolo[4,3-b]pyridin-3-yl)pyridin-2-yl)methyl)-5,6,7,8-tetrahydro-[1,2,4]triazolo[1,5-a]pyrazine], the IC50 was 0.04 to 0.1 µM in assay [1], 0.04 to 0.1 µM in assay [2] (setting [7]), less than 0.006 µM in assay [3] and less than 0.006 µM in assay [4].
